As usually defined, the Kd is the constant that tells how readily two partners part at equilibrium.

One test deals with PfCCT(528–795) K663A (Plasmodium falciparum, UniProt Q8IEE9, DEL720-737/K663A). As to the kind of experiment: Equilibrium ligand binding by isothermal titration calorimetry (ITC). To be noted: 20 °C. As to the method:
(§1) Calorimetric measurements were performed on an ITC 200 titration calorimeter (Malvern) at 20 °C. The protein samples were dialyzed against 20 mM HEPES/NaOH pH 7.5, 100 mM NaCl, including 0.5 mM Tris(2-carboxyethyl)phosphine (TCEP) as reducing agent. CTP and CDPCho were diluted from a concentrated stock into the dialysis buffer with subsequent pH adjustment. Concentration of the titrating nucleotide ligands were determined using molar extinction coefficients 9000 M^−1 cm^−1 at 271 nm for CTP and 5000 M^−1 cm^−1 at 260 nm for CDPCho[16]. In the experimental setup, the cell of the instrument was filled with protein and the syringe with the ligand. The titrations typically included 19 steps of injection with 2 μl of ligand per injection spaced 180 s apart from each other, with the injection syringe rotating at 750 r.p.m. The data were analyzed using MICROCAL ORIGIN software following the directions of the manufacturer. To account for dilution, the invariant integrated heat value of the last 3–5 data points was subtracted from all data points. The one set of independent sites binding model was applied to data for determination of thermodynamic parameters: dissociation constant (Kd), stoichiometry (N), enthalpy (ΔH) and entropy (ΔS). Due to the low apparent affinity, the N value was fixed to a constant value of 1 in CTP titrations to PfCCT(528–795) K663A according to the low c value ITC data analysis protocol[40],[41]. For CTP and CDPCho titrations of PfCCT(528–795) K663A, and CTP titrations of T761A and T762A variants of PfCCT(528-795), mean and SD from two independent experiments are provided, whereas for CDPCho titrations of PfCCT(581–775) and PfCCT(528-795) mean and SD from three independent experiments are provided. For PfCCT(528-795) (Y626F/Q636A), errors of model fit to data of a single ligand binding experiment are given.
On the technique in general: ITC needs no label: the signal is the heat of the interaction.

In test [1] the target is PfCCT(528–795) Y626F/Q636A (Plasmodium falciparum, UniProt Q8IEE9, DEL720-737/Q636A/Y626F). The description is as above. The conditions noted are these: 20 °C, pH 7.5, single experiment, errors of model fit. How it is done:
as §1

Another test deals with T1, PfCCT(528–795) (Plasmodium falciparum, UniProt P49587, DEL194-211).
T1 construct: previously described PfCCT(528–795) lacking the lysine-rich Plasmodium specific loop (720–737); His-tag; made in house
The description is as above. The conditions noted are these: 20 °C. How it is done: as §1

For the next test, the target named is T2, PfCCT(581–775) (Plasmodium falciparum, UniProt P49587, DEL194-211).
T2 construct: The PfCCT(581–775) construct was obtained using previously described PfCCT(528–795); 6xHis (TEV-cleavable) (N, cleaved yes); made in house; host or cells: E. coli BL21 (DE3)
As to the kind of experiment: Saturation Transfer Difference NMR (STD-NMR) ligand binding. To be noted: ligand 1 mM; 50 µM PfCCT(581-775), 283 K. As to the method: In order to provide structural insights into the mechanism of action of PfCCT, we set out to crystallize the constitutively active C-terminal catalytic domain of PfCCT. Several constructs were tested and our attempts were successful only in case of PfCCT(581–775) that corresponds to the exact region visible in the crystal structure of RnCCT (PDB: 3HL4)[20] (Fig. 1a). […] (Table 1 and Supplementary Fig. S1). We further assessed the functionality of PfCCT(581–775) by characterizing its substrate and product binding ability. […] Saturation Transfer Difference Nuclear Magnetic Resonance (STD-NMR) experiments indicated STD signal of CTP, ChoP and CDPCho bound to PfCCT(581–775) at 1 mM, 4 mM and 1 mM concentrations, respectively (Supplementary Fig. S1). This latter result is consistent with previously observed unusually low ChoP affinity of PfCCT[16]. We concluded that PfCCT(581–775) is compatible with substrate and product recognition and may be amenable to structural studies provided that its compromised enzymatic function is taken into account in structure-based interpretations. It is likely that the drop of PfCCT(581–775) enzyme activity is due to the elimination of the C-terminal flanking part as similarly located truncations in the RnCCT catalytic domain also led to severe loss of activity[28],[29]. […]
Kinetic data are fitted with the Michaelis–Menten equation. […] Values of the measured kinetic and thermodynamic parameters and their errors […]
(black) of 50 µM PfCCT(581-775) in 20 mM Tris/HCl pH 7.5, 150 mM NaCl and 2 mM EtSH are shown in presence of c) 1 mM CTP, d) 4 mM ChoP and e) 1 mM CDPCho. […] The 1D 1H STD-NMR spectra were recorded on a Bruker 500 MHz instrument at 283 K with 256 scans and selective saturation of protein resonances at 0.922 ppm using a series of Gaussian shaped pulses (20 ms, 1 ms delay between the pulses). […] All 1D 1H NMR spectra were recorded […]

The next test has as its target PfCCT(528–795) T762A. As to the kind of experiment: Equilibrium ligand binding by isothermal titration calorimetry (ITC). Further details: species or system Plasmodium falciparum. To be noted: 20 °C, pH 7.5, read-out: Kd,CTP. How it is done:
as §1, with “Due to the low apparent affinity, the N value was fixed to a constant value of 1 in CTP titrations to PfCCT(528–795) K663A according to the low c value ITC data analysis protocol[40],[41]. For CTP and CDPCho titrations of PfCCT(528–795) K663A, and CTP titrations of T761A and T762A variants of PfCCT(528-795), mean and SD from two independent experiments are provided, whereas for CDPCho titrations of PfCCT(581–775) and PfCCT(528-795) mean and SD from three independent experiments are provided. For PfCCT(528-795) (Y626F/Q636A), errors of model fit to data of a single ligand binding experiment are given.” left out

In another test the target is PfCCT(528–795) T761A. The test is described as above. Also noted: species or system Plasmodium falciparum. The conditions noted are these: 20 °C, pH 7.5, read-out: Kd,CTP. As to the method:
as §1, with “Due to the low apparent affinity, the N value was fixed to a constant value of 1 in CTP titrations to PfCCT(528–795) K663A according to the low c value ITC data analysis protocol[40],[41]. For CTP and CDPCho titrations of PfCCT(528–795) K663A, and CTP titrations of T761A and T762A variants of PfCCT(528-795), mean and SD from two independent experiments are provided, whereas for CDPCho titrations of PfCCT(581–775) and PfCCT(528-795) mean and SD from three independent experiments are provided. For PfCCT(528-795) (Y626F/Q636A), errors of model fit to data of a single ligand binding experiment are given.” left out

Chain of PfCCT(528–795) Y626F/Q636A (Q8IEE9 528-795, stated change not applied): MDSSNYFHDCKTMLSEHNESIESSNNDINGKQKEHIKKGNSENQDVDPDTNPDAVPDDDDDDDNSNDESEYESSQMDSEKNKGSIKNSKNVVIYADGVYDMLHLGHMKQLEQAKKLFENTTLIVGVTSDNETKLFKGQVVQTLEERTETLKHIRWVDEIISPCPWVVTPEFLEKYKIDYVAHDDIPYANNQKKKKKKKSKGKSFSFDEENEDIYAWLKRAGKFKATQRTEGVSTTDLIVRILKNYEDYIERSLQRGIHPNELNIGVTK
Chain of PfCCT(528–795) K663A (Q8IEE9 528-795, stated change not applied): as above

In the case of `Nc1ccn([C@@H]2O[C@H](COP(=O)(O)OP(=O)(O)OP(=O)(O)O)[C@@H](O)[C@H]2O)c(=O)n1` [CTP], the ΔGCTP is -4.4 ± 0.1 kcal/mol at PfCCT(528–795) K663A (pH 7.5, N fixed to 1); -5.7 ± 0.1 kcal/mol in test [1]; -5.7 ± 0.1 kcal/mol at PfCCT(528–795) (pH 7.5). In addition, the “−TΔSCTP” value is -10.5 ± 0.6 kcal/mol at PfCCT(528–795) K663A (pH 7.5, N fixed to 1); 5.1 ± 0.2 kcal/mol in test [1]; 3.0 ± 0.4 kcal/mol at PfCCT(528–795) (pH 7.5). For the same molecule, the Kd at PfCCT(528–795) K663A (pH 7.5, N fixed to 1 (low c value protocol), read-out: Kd,CTP) amounted to 520 ± 50 µM; in test [1] (read-out: Kd,CTP), 60 ± 2 µM; at PfCCT(528–795) (pH 7.5, read-out: Kd,CTP), 60 ± 2 µM; on PfCCT(528–795) T762A, 170 ± 12 µM; on PfCCT(528–795) T761A it was 170 ± 35 µM. The results for the ΔHCTP (in test [1]; at PfCCT(528–795) (pH 7.5)) were -10.8 ± 0.1 kcal/mol and -8.6 ± 0.3 kcal/mol, respectively. Further, on PfCCT(581–775), the “STD-NMR signal of ligand bound to enzyme” value is on record as “STD signal”.
